The values that follow come from publication PMC12454639, “Direct disassembly of α-syn preformed fibrils into α-syn monomers by an all-D-peptide” (NPJ Parkinson's Disease, 2025).

The nature of one series: Solubility of D-peptides. The following applies: PBS pH 7.4, 1 h at 37 °C, 20,800×g centrifugation, UV–vis absorption; lyophilized chloride salt.
A further series concerns small α-syn PFF seeds. The series is described as follows: Seeded ThT aggregation assay. The following applies: then 20 µM α-syn monomer, n = 3. The format is biochemical. The protocol: The Thioflavin T (ThT) assay is commonly used for the visualization of α-syn fibrilization, since the dye ThT is able to bind to the amyloidogenic cross-β-sheet proportions of fibril structures. Recombinant α-syn was thawed on ice and centrifuged for 30 min at 21,000 × g and 4 °C. The concentration of the supernatant was determined as described previously. Lyophilized D-peptides were thawed at RT for 1 h and dissolved in 500 µl PBS pH 7.4. After centrifugation for 30 min at 21,000 × g the supernatant concentration was determined by UV–vis using the corresponding extinction coefficient at A280. All ThT assay experiments were performed at 37 °C with 15 µM ThT and 0.05% sodium azide (w/v) in PBS pH 7.4 if not otherwise stated. ThT fluorescence was monitored with bottom optics at λex = 448 nm and λem = 482 nm in a fluorescence plate reader with orbital averaging on 3 mm (Clariostar or Polarstar Optima, BMG labtech, GE). Prior to measurement start, 120 µl sample solution was transferred to a non-binding 96-half area well plate with transparent flat bottom (Corning, USA). One borosilicate glass bead (d = 3.0 mm, Hilgenberg, GE) was added to each well for all de novo aggregation assays. For seeded aggregation assays, no bead was used, and samples were incubated under quiescent conditions. Wells that surrounded the sample wells were filled with the same volume of buffer to improve heat distribution. Experiments were performed with five replicates (n = 5) if not otherwise stated.
ThT assay was used for different purposes. […] Lag-time and t½ were calculated as described previously. […] Measurements were taken every 5 min (n = 3).
small α-syn PFF seeds were prepared as described previously with some modifications. First, insoluble PFF were produced by incubation of 300 µM recombinant α-syn in a LoBind reaction tube (Eppendorf GmbH, GE) with one borosilicate glass bead (d = 3.0 mm; Hilgenberg, DE) in 20 mM NaPi, pH 7.0, 150 mM NaCl, 0.05% (w/v) sodium azide for one week at 37 °C. The insoluble PFF were harvested by ultracentrifugation at 100,000 × g for 30 min at 4 °C, and the pellet was washed several times with 20 mM NaPi, pH 7.0, 150 mM NaCl. The monomer equivalent concentration was determined by measuring the α-syn concentration in the supernatant after the first centrifugation and subtracting it from the start concentration for fibrilization. […]
ThT fluorescence progression was measured in a 96-well non-binding half-area plate (Corning, USA) with a FLUOStar platereader (BMG labtech, GE) at λex = 448 nm and λem = 482 nm. […] 10 µM α-syn monomer was incubated with 5, 10 and 20 µM peptide at 37 °C, adding one borosilicate glass bead per well (d = 3.0 mm, Hilgenberg, GE) with continuous orbital shaking at 300 rpm in between reads. […]

“Also recorded” adds a separate entry of the source. Square brackets hold non-standard residues; d marks the D form. Peptide text beside a SMILES is read from it.

Regarding `CC[C@@H](C)[C@@H](NC(=O)[C@@H](Cc1c[nH]cn1)NC(=O)[C@@H](CCC(=O)O)NC(=O)[C@@H](CCC(N)=O)NC(=O)[C@@H](Cc1c[nH]c2ccccc12)NC(=O)[C@@H](Cc1ccc(O)cc1)NC(=O)[C@H](NC(=O)[C@@H](CCC(=O)O)NC(=O)[C@@H](Cc1c[nH]cn1)NC(=O)[C@H](NC(=O)[C@H]1CCCN1C(=O)[C@@H](CCSC)NC(=O)[C@H](N)CCCCN)[C@H](C)O)[C@H](C)O)C(=O)N[C@H](Cc1c[nH]c2ccccc12)C(=O)N[C@H](Cc1c[nH]cn1)C(=O)N[C@H](C)C(N)=O` [SVD-1] (H-[dK][dM][dP][dT][dH][dE][dT][dY][dW][dQ][dE][dH][dI][dW][dH][dA]-NH2), the “concentration completely retained in supernatant” value in the series “Solubility of D-peptides” is “at least 1 mM”. In addition, the “inhibition of seeded aggregation” value with small α-syn PFF seeds (50 nM small α-syn PFF pre-incubated 20 h with peptide, 37 °C quiescent) is “significantly decelerate amyloid growth in the seeded environment; also recorded: inhibits elongation and secondary nucleation of α-syn”.
Turning to `CC[C@@H](C)[C@@H](NC(=O)[C@@H](Cc1c[nH]cn1)NC(=O)[C@@H](CCC(=O)O)NC(=O)[C@@H](CCC(N)=O)NC(=O)[C@@H](Cc1c[nH]c2ccccc12)NC(=O)[C@@H](Cc1ccc(O)cc1)NC(=O)[C@H](NC(=O)[C@@H](CCC(=O)O)NC(=O)[C@@H](Cc1c[nH]cn1)NC(=O)[C@H](NC(=O)[C@H]1CCCN1C(=O)[C@@H](CC(C)C)NC(=O)[C@H](N)CCCNC(=N)N)[C@H](C)O)[C@H](C)O)C(=O)N[C@H](Cc1c[nH]c2ccccc12)C(=O)N[C@H](Cc1c[nH]cn1)C(=O)N[C@H](C)C(=O)N[C@H](CCCNC(=N)N)C(=O)N[C@H](CCCNC(=N)N)C(=O)N[C@H](CCCNC(=N)N)C(=O)N[C@H](CCCNC(=N)N)C(=O)N[C@H](CCCNC(=N)N)C(N)=O` [SVD-1a] (H-[dR][dL][dP][dT][dH][dE][dT][dY][dW][dQ][dE][dH][dI][dW][dH][dA][dR][dR][dR][dR][dR]-NH2), the “effect on elongation rate” value with small α-syn PFF seeds (5 µM peptide, 50 nM PFF pre-incubated 20 h) is on record as “a reduction of the elongation rate was observed”. Besides, the inhibition of seeding entry in the series on small α-syn PFF seeds (20 µM or higher peptide (20 µM for SVD-1_scrambled+5r), 50 nM PFF pre-incubated 20 h) is reported as “complete inhibition of the seeding capacity”.
